From US8900626B2, “Transdermal drug delivery system and method of using the same” (Senju USA, Inc., priority 2011, dated 2014)
Where two headings read alike, the source gives them in different places.

Protocol: In vitro permeation study through hairless mouse skin to investigate the skin permeability of clobetasol propionate, amcinonide, betamethasone dipropionate, loteprednol etabonate, dexamethasone, prednisolone acetate and its metabolite (prednisolone).
Steroid patches were prepared according to the following procedure. The steroid (clobetasol propionate, amcinonide, betamethasone dipropionate, loteprednol etabonate, dexamethasone, or prednisolone acetate) was weighed in a clear polypropylene cup. 2 mL of ethyl acetate was added, and dispersed by ultrasonic wave using an ultrasonicator. DURO-TAK® 87-4098 was carefully added in the clear polypropylene cup. The components were mixed using a spatula, and then the lid of the cup was closed to avoid evaporation. A coating bar was adjusted to about 370 μm to control the thickness. The product material was carefully dispensed onto release liner near the coating bar. The coating process was started by moving the coating bar with the hand. The coated sheet was transferred to the oven and heated at 80° C. for 10±1 minutes. The dried sheet was removed from the oven, and laminated with the polyethylene terephthalate film. The thickness of the patch was checked.
The abdominal skin of 6 hairless, 8 week old, female mice were used for in vitro skin permeation experiment. (Horizontal cell, effective volume: 5 mL, effective area: 0.64 cm^2). […] The experimental temperature was controlled at 37° C., and 400 μL it of receptor solution was sampled at 1, 2, 3, 4, 5, 6, 9, 12, 22, 28, 34 and 48 hours. Thereafter, the same amount of the 40% polyethylene glycol 400 solution was added to the receptor cell. The concentration of each steroid in the sampled receptor solution was analyzed with HPLC.

[1] = female, hairless, mouse, 5 % (steroid in patch)

Row | SMILES | lag-time, times shorter than dexamethasone [1] | lag-time, times shorter than prednisolone [1] | steady-state penetration rate, times higher than that of dexamethasone [1] | steady-state penetration rate, times higher than that of prednisolone [1] | lag-time, times shorter than dexamethasone | lag-time, times shorter than prednisolone | steady-state penetration rate, times higher than that of dexamethasone | steady-state penetration rate, times higher than that of prednisolone
1 | CCOC(=O)O[C@]1(C(=O)OCCl)CC[C@H]2[C@@H]3CCC4=CC(=O)C=C[C@]4(C)[C@H]3[C@@H](O)C[C@@]21C [loteprednol, loteprednol etabonate] | 4 times | 5 times | 7 times | 12 times |  |  |  | 
2 | CC(=O)OCC(=O)[C@@]12OC3(CCCC3)O[C@@H]1C[C@H]1[C@@H]3CCC4=CC(=O)C=C[C@]4(C)[C@@]3(F)[C@@H](O)C[C@@]12C [amcinonide] | 4 times | 5 times | 10 times | 20 times |  |  |  | 
3 | CCC(=O)O[C@]1(C(=O)CCl)[C@@H](C)C[C@H]2[C@@H]3CCC4=CC(=O)C=C[C@]4(C)[C@@]3(F)[C@@H](O)C[C@@]21C [clobetasol, clobetasol propionate] | 6 times | 7 times | 8 times | 14 times |  |  |  | 
4 | CCC(=O)OCC(=O)[C@@]1(OC(=O)CC)[C@@H](C)C[C@H]2[C@@H]3CCC4=CC(=O)C=C[C@]4(C)[C@@]3(F)[C@@H](O)C[C@@]21C [betamethasone, betamethasone dipropionate] |  |  |  |  | 3 times | 4 times | 3 times | 6 times
